Results published in publication PMC8622623, “Histamine H3 Receptor Ligands—KSK-59 and KSK-73—Reduce Body Weight Gain in a Rat Model of Excessive Eating” (Pharmaceuticals, 2021).

Columns and labels:
in vitro = settings: PAMPA, pH 7.4
Experimental: The reference compounds, well-permeable caffeine and low-permeable norfloxacin were obtained from Sigma-Aldrich (St. Louis, MO, USA). Used for this study, pre-coated PAMPA Plate System Gentest™ was provided by Corning (Tewksbury, MA, USA). The system consisted of 96-well receiver filter plate pre-coated with structured layers of phospholipids and a donor microplate. The assay was performed as described previously. […] After 5 h of incubation at RT° the UPLC-MS spectrometry (Waters ACQUITY™ TQD system with the TQ Detector, Waters, Milford, MA, USA) method was used to estimate the quantity of compounds that penetrated from donor to acceptor wells. The permeability coefficients (Pe, cm/s) were calculated using the formulas provided by Corning.

mice fed high fat diet = tested on: mice fed high fat diet; set-up: method as in PMID 15833055, PMID 15447739; settings: mice fed high fat diet ref 4, 16; cited from earlier work
rat = settings: i.p., no reference given; cited from earlier work
female Wistar rats = assay: Visceral illness via kaolin intake (pica behavior); format: in vivo; settings: single i.p., 24 h; vs vehicle control
Experimental: The method was based on the works by Takeda et al. and Yamamoto et al. with minor modification. The experiment lasted for five days. In addition to free access to feed, animals had also free access to a white kaolin. For the first few days, the animals were accustomed to the presence of kaolin in their cages. […] Moreover, animals were weighed before the compounds administration and 24 h after.

laboratory animals = tested on: laboratory animals; set-up: method as in PMID 33261900; settings: laboratory animals ref 12; cited from earlier work

For `Cn1c(=O)c2c(ncn2C)n(C)c1=O` [CFN, caffeine], the Papp at 5 h, 200 µM (in vitro) was 122 ± 9.4 nm/s.

For `CN(C)[C@@H]1CCN(CCCOc2ccc(-c3ccc(C#N)cc3)cc2)C1` [Compound A-331440], the body weight (mice fed high fat diet) is listed as “caused weight loss”, the insulin tolerance (mice fed high fat diet) is listed as “normalized insulin tolerance” and the leptin levels (mice fed high fat diet) is listed as “lowered leptin levels”.

For `O=S(=O)([O-])[O-].[Cu+2]` [CuSO4, reference compound], the LD50 (rat) is given as 18 mg/kg, the “calorie intake (pica model)” value (female Wistar rats) is given as “reduced caloric intake” and the “water intake (pica model)” value (female Wistar rats) is given as “drank less water”.

For `N#Cc1ccc(-c2ccc(OCCCN3CCN(c4ccncc4)CC3)cc2)cc1` [KSK-94], the kcal intake (laboratory animals) is listed as “reduced kcal intake”, the “plasma triglyceride and total cholesterol levels” value (laboratory animals) is listed as “lowering plasma triglyceride and total cholesterol levels” and the weight gain (laboratory animals) is listed as “strongly prevented weight gain”.

In the case of `CCn1cc(C(=O)O)c(=O)c2cc(F)c(N3CCNCC3)cc21` [NFX, norfloxacin], the Papp at 5 h, 200 µM (in vitro) is reported as 0.56 ± 0.1 nm/s.
